One assay deals with MIA PaCa-2. Briefly: cells. To be noted: Homo sapiens.
For another assay, the system named is A549. Description: cells. As to conditions: Homo sapiens.
In a further assay the test system is A2058. Briefly: Cytotoxicity against human A2058 cells assessed as reduction in cell viability. In kind it is cell-based.
The test system of another assay is HepG2. Briefly: cells. As to conditions: Homo sapiens.
Another assay deals with MCF7. Briefly: cells. As to conditions: Homo sapiens.
Assay [1] deals with T1, Mushroom tyrosinase (Agaricus bisporus, UniProt O42713+Q00024+C7FF04+C7FF05). Description: Inhibition of mushroom tyrosinase using L-DOPA as substrate.
The target of assay [2] is T1, Mushroom tyrosinase. Briefly: Mixed-type of inhibition of mushroom tyrosinase using varying level of L-DOPA as substrate by Dixon plot analysis.

We go through 8 compounds from ChEMBL document CHEMBL4616615, “Screening for tyrosinase inhibitors from actinomycetes; identification of trichostatin derivatives from Streptomyces sp. CA-129531 and scale up production in bioreactor” (Bioorg Med Chem Lett, 2020).

pIC50: −log10 of the molar value.

As a reminder, the pIC50 is −log10 of the IC50, conventionally taken in molar units. For orientation: IC50 means the concentration at which inhibition is half-maximal. A lower IC50 goes with greater potency in that assay. What is called Ki is a dissociation constant, usually derived from enzyme kinetics or from competition with a known ligand.

Description for A549: Cytotoxicity against human A549 cells assessed as reduction in cell viability
Description for HepG2: Cytotoxicity against human HepG2 cells assessed as reduction in cell viability
Description for MIA PaCa-2: Cytotoxicity against human MIAPaCa2 cells assessed as reduction in cell viability

Turning to `CC(/C=C/C(N)=O)=C\[C@@H](C)C(=O)c1ccc(N(C)C)cc1`, the negative-log IC50 (pIC50) was 5.02 in the assay on MIA PaCa-2; 5.08 in the assay with A549; 6.19 with A2058; 5.50 in the assay with HepG2; 5.56 with MCF7. The compound further yielded a half-maximal inhibitory concentration (IC50) against Mushroom tyrosinase [1] of 19.18 µM.

For `CNC(=O)/C=C/C(C)=C/[C@@H](C)C(=O)c1ccc(N(C)C)cc1`, the pIC50 with MIA PaCa-2 is 4.44; in the assay on A549, less than 4.30; in the assay with A2058, less than 4.30; in the assay with HepG2 it was 4.88; with MCF7, 4.73. The compound also yielded a half-maximal inhibitory concentration (IC50) on Mushroom tyrosinase [1] of 161.18 µM.

Consider `CC(/C=C/C(=O)NO[C@@H]1O[C@H](CO)[C@@H](O)[C@H](O)[C@H]1O)=C\[C@@H](C)C(=O)c1ccc(N(C)C)cc1`, for which the pIC50 was 4.42 with MIA PaCa-2; 4.60 in the assay with A549; 4.43 in the assay with A2058; 4.75 in the assay on HepG2; 4.72 in the assay on MCF7. The compound further displayed a half-maximal inhibitory concentration (IC50) on Mushroom tyrosinase [1] of 174.33 µM.

With `CC(/C=C/C(=O)O)=C\[C@@](C)(O)C(=O)c1ccc(N(C)C)cc1`, the pIC50 in the assay on MIA PaCa-2, with A549, with A2058, in the assay on HepG2 and with MCF7 was less than 4.30 each time.

On to `CC(/C=C/C(=O)O)=C\[C@H](C)C(=O)c1ccc(N(C)C)cc1`, for which the negative-log IC50 (pIC50) with MIA PaCa-2, with A549, in the assay with A2058, in the assay with HepG2 and in the assay with MCF7 was less than 4.30 in each case.

Turning to `CC(/C=C/C(=O)N[C@@H](CCC(N)=O)C(=O)O)=C\[C@@H](C)C(=O)c1ccc(N(C)C)cc1`, the negative-log IC50 (pIC50) with MIA PaCa-2, with A549, with A2058, in the assay on HepG2 and with MCF7 was less than 4.30 each time.

With `COc1cccc2c1C(=O)c1c(O)c3c(c(O)c1C2=O)C[C@@](O)(C(=O)CO)C[C@@H]3O[C@H]1C[C@H](N)[C@H](O)[C@H](C)O1` [DOXORUBICIN], the pIC50 with MIA PaCa-2 was 5.99; in the assay with A549, 5.42; with A2058, greater than 6.96; in the assay on HepG2 it was greater than 6.96.

In the case of `CC(/C=C/C(=O)NO)=C\[C@@H](C)C(=O)c1ccc(N(C)C)cc1` [TRICHOSTATIN], the pIC50 in the assay on MIA PaCa-2 was 6.05; in the assay on A549 it was 5.88; in the assay with A2058, 6.37; with HepG2, 6.42; in the assay on MCF7, 6.52. In addition, the Ki on Mushroom tyrosinase [2] was determined as 6.1 µM. The same compound yielded an IC50 against Mushroom tyrosinase [1] of 2.18 µM.
